Data reported in patent US12276654B2, “Chemical probe-dependent evaluation of protein activity and uses thereof” (The University of Chicago, priority 2017, dated 2025).
“Also recorded” adds a separate entry of the source.

Target: T1, PAFAH2 (Homo sapiens, UniProt Q99487)
T1 construct: Full-length, human ESD (NM_001984) and PAFAH2 (NM_000437) in pCMV6 entry vectors with C-terminal Myc-DDK tag
Test: ADPL quantification of PAFAH2 activity in stable PAFAH2 expressing PC3 cells
Format: cell-based
Settings: same dose-range (0-1 μM)
Procedure: Cells were seeded in the 12-well chamber slide, typically at 10,000-30,000 cells per well (Ibidi, #81201). To get an even distribution of the cells, the chamber slide was pre-wetted with cell culture medium, drained off, and the chamber was left at room temperature for 5-10 min after seeding. Cells at 80-90% confluency were pulse treated with either FP-Bio (2 μM) in DMEM and incubated at 37° C. for 40 min or Capthepsin probe (5 μM) in complete medium and incubated at 37° C. for 3 hr. Cells were washed with PBS, fixed with 4% paraformaldehyde in PBS at room temperature for 15 minutes, washed twice with PBS for 5 minutes each at room temperature with orbital shaking and then permeabilized in 0.5% Triton X-100 in PBS at room temperature for 15 minutes. Finally, cells were washed twice with 0.05% Tween-20 in PBS for 5 minutes each at room temperature with orbital shaking.
Prior to antibody incubation, the chamber was removed and the well boundaries delineated with the hydrophobic barrier pen (Vector laboratories, #H-4000). One-drop Duolink blocking buffer (Sigma, #DUO92004) was added and the slide was incubated at 37° C. for 30 minutes in a humidified chamber. […]

CC(C)c1ccccc1OC(=O)NCCc1ccc2ccccc2c1 [JW480]
effect on PAFAH2 activity (ADPL signal): no inhibition of target signal was observed; also recorded: no effect
